Like-named read-outs stand apart in the source and are kept apart here.
Tests used:
[1] = biological target: wild-type subtype B HIV-1 PR; conditions: cited from earlier work
[2] = biological target: T1, wild type (WT) South African HIV-1 subtype C protease (HIV-1 PR) (Human immunodeficiency virus type 1 group M subtype C, UniProt O12158); assay: Enzyme inhibition assay with chromogenic substrate (Dixon method), wild type PR; type: biochemical; conditions: for Relative Resistance: WT, Ki of mutant/Ki of WT
T1 sequence (O12158 485-583): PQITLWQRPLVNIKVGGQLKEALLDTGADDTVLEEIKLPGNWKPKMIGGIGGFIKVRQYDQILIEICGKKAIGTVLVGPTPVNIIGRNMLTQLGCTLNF
Description: (§1) HIV-1 PR activity was measured by adding a purified enzyme (100–300 nM) to 300 µM of the chromogenic substrate Lys-Ala-Arg-Val-Nle-p-nitro-Phe-Glu-Ala-Nle amide (Sigma-Aldrich, St. Louis, MO, USA) dissolved in buffer D (50 mM sodium acetate buffer containing 100 mM NaCl (pH 5.0)) at 37 °C. The change in absorbance upon hydrolysis of the substrate by HIV-1 PR was monitored, and an extinction coefficient of 1800 M-1 cm-1 at a wavelength of 300 nm was used to convert the absorbance change to reaction rates. […] The data obtained were analyzed by plotting the reciprocal of substrate hydrolysis against substrate concentration (Lineweaver–Burk method to determine the Km and Kcat) and inhibitor concentration (Dixon method to determine the Ki) respectively.

[3] = biological target: wild type South African HIV-1 subtype C PR; conditions: previous study ref 71; cited from earlier work
[4] = biological target: T2, HIV-1 PR MUT-2 (M46I, I54V, L76V, V82A, L10F, L33F) (Human immunodeficiency virus type 1 group M subtype C, UniProt O12158, I538V/L494F/L517F/L560V/M530I/V566A); assay: Intrinsic tryptophan fluorescence quenching assay, MUT-2 PR; type: binding, HIV-1 subtype C; conditions: MUT-2 HIV-1 PR; for Ki: tryptophan fluorescence, 25 °C
T2 construct: The HIV-1 PR is a 99 amino acid homodimer; made in house; host or cells: Escherichia coli (NEBExpress)
T2 sequence (O12158 485-583 L494F/L517F/M530I/I538V/L560V/V566A): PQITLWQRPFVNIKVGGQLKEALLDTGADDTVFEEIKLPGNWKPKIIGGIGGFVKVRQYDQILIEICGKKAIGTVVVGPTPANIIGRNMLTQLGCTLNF
Description: (§2) Fluorescent spectra were recorded as described previously using a PerkinElmer LS 55 spectrometer with a 1.0 cm quartz cell (PerkinElmer, Waltham, MA, USA) and connected to a thermostat-controlled bath. This assay utilized the intrinsic tryptophan (Trp) fluorescence by causing the excitation of the π–π* transition in the tryptophan residues. Two Trp residues are found at positions 6 and 42 in each monomer of HIV-1 PR. Trp 6 is located close to the active site, and Trp 42 is found close to the flap of the HIV-1 PR. The position of the Trp residues on the enzyme surface makes them good probes in monitoring changes in the HIV-1 PR tertiary structure. The protein was excited at 295 nm, and fluorescence measurements were recorded from 300 to 420 nm at room temperature (25 °C). The excitation and emission slit widths were set at 5 nm, and the fluorescence spectra were acquired at 500 nm/min. The obtained fluorescence data was corrected and smoothened by running control samples of the buffer. For the fluorescence quenching study, […] of HIV-1 PR and varying inhibitor concentration from 10 to 500 nM were used. For every reaction, a new enzyme solution was used. […] The inner filter effect was corrected by using the formula Fc = Fantilog[(Aex + Aem)/2], where Fc is the corrected measurement and F is the measured fluorescence intensities, respectively, Aex is solution absorbance at the excitation, and Aem emission wavelengths.

[5] = biological target: T3, HIV-1 PR MUT-1 (M46I, I54V, V82A, L10F) (Human immunodeficiency virus type 1 group M subtype C, UniProt O12158, I538V/L494F/M530I/V566A); assay: biochemical
T3 sequence (O12158 485-583 L494F/M530I/I538V/V566A): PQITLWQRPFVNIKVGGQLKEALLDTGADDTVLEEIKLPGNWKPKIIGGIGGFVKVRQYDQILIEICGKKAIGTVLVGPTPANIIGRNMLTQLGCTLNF
Description: as §1

[6] = biological target: T4, HIV-1 PR MUT-3 (M46I, I54V, L76V, V82A, L90M, F53L) (Human immunodeficiency virus type 1 group M subtype C, UniProt O12158, F537L/I538V/L560V/L574M/M530I/V566A); assay: biochemical
T4 sequence (O12158 485-583 M530I/F537L/I538V/L560V/V566A/L574M): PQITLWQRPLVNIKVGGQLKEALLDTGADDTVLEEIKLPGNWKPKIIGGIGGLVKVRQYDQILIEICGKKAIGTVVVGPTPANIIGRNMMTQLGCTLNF
Description: as §1

[7] = biological target: HIV-1 PR MUT-2 (M46I, I54V, L76V, V82A, L33F, L10F) (Human immunodeficiency virus type 1 group M subtype C, UniProt O12158, I538V/L494F/L517F/L560V/M530I/V566A); assay: biochemical
Sequence of HIV-1 PR MUT-2 (M46I, I54V, L76V, V82A, L33F, L10F) (Human immunodeficiency virus type 1 group M subtype C, UniProt O12158, I538V/L494F/L517F/L560V/M530I/V566A) (O12158 485-583 L494F/L517F/M530I/I538V/L560V/V566A): as the sequence (O12158 485-583 L494F/L517F/M530I/I538V/L560V/V566A) above
Description: as §1

[8] = biological target: T3, HIV-1 PR MUT-1 (M46I, I54V, V82A, L10F); assay: biochemical; type: binding, HIV-1 subtype C; parameters: The HIV-1 PR is a 99 amino acid homodimer; made in house; host or cells: Escherichia coli (NEBExpress); conditions: for Stern–Volmer quenching constant (Ksv): MUT-1 HIV-1 PR
Description: as §2

[9] = biological target: T4, HIV-1 PR MUT-3 (M46I, I54V, L76V, V82A, L90M, F53L); assay: biochemical; type: binding, HIV-1 subtype C; parameters: The HIV-1 PR is a 99 amino acid homodimer; made in house; host or cells: Escherichia coli (NEBExpress); conditions: for Stern–Volmer quenching constant (Ksv): MUT-3 HIV-1 PR
Description: as §2

[10] = biological target: T1, wild type (WT) South African HIV-1 subtype C protease (HIV-1 PR); assay: Intrinsic tryptophan fluorescence quenching assay, wild type PR; type: binding
Description: Fluorescent spectra were recorded as described previously using a PerkinElmer LS 55 spectrometer with a 1.0 cm quartz cell (PerkinElmer, Waltham, MA, USA) and connected to a thermostat-controlled bath. This assay utilized the intrinsic tryptophan (Trp) fluorescence by causing the excitation of the π–π* transition in the tryptophan residues. Two Trp residues are found at positions 6 and 42 in each monomer of HIV-1 PR. Trp 6 is located close to the active site, and Trp 42 is found close to the flap of the HIV-1 PR. The position of the Trp residues on the enzyme surface makes them good probes in monitoring changes in the HIV-1 PR tertiary structure. The protein was excited at 295 nm, and fluorescence measurements were recorded from 300 to 420 nm at room temperature (25 °C). The excitation and emission slit widths were set at 5 nm, and the fluorescence spectra were acquired at 500 nm/min. The obtained fluorescence data was corrected and smoothened by running control samples of the buffer. For the fluorescence quenching study, […] of HIV-1 PR and varying inhibitor concentration from 10 to 500 nM were used. For every reaction, a new enzyme solution was used. The decrease in intrinsic Trp fluorescence (F0–F) at each concentration of inhibitor was fitted to the equation (F0–F) = ΔFmax/(1 + (Ki/[I]) to determine Ki and ΔFmax values using the Origin(Pro), 2019 (OriginLab Corporation, Northampton, MA, USA). The Stern–Volmer quenching constants (Ksv) were also calculated by fitting the data into the equation F0/F = 1 + Ksv (Q). The Stern–Volmer constant reports the accessibility of fluorophores to a quencher and the solvent accessibility of the fluorophore. Thus, it is an essential tool that can be used to probe the conformational changes around a fluorophore in proteins. […] The inner filter effect was corrected by using the formula Fc = Fantilog[(Aex + Aem)/2], where Fc is the corrected measurement and F is the measured fluorescence intensities, respectively, Aex is solution absorbance at the excitation, and Aem emission wavelengths.

[11] = test system: HIV-1 PR MUT-1 (M46I, I54V, V82A, L10F); assay: biochemical; conditions: MUT-1; Ki of mutant/Ki of WT
Description: as §1

[12] = test system: HIV-1 PR MUT-2 (M46I, I54V, L76V, V82A, L33F, L10F); assay: biochemical; conditions: MUT-2; Ki of mutant/Ki of WT
Description: as §1

[13] = test system: HIV-1 PR MUT-3 (M46I, I54V, L76V, V82A, L90M, F53L); assay: biochemical; conditions: MUT-3; Ki of mutant/Ki of WT
Description: as §1

[14] = biological target: multidrug-resistant forms of HIV-1 subtype B PR harboring numerous major and minor mutations; conditions: cited from earlier work

| SMILES | Ki [2] [nM] | Relative Resistance [2] | Ki [3] [nM] | Stern–Volmer quenching constant (Ksv) [4] [nM⁻¹] | Ki [4] [nM] | Ki [5] [nM] | Ki [6] [nM] | Ki [7] [nM] | Ki [8] [nM] | Stern–Volmer quenching constant (Ksv) [8] [nM⁻¹] | Ki [9] [nM] | Stern–Volmer quenching constant (Ksv) [9] [nM⁻¹] | Ki [10] [nM] | also measured |
| --- | --- | --- | --- | --- | --- | --- | --- | --- | --- | --- | --- | --- | --- | --- |
| CC(C)CN(C[C@@H](O)[C@H](Cc1ccccc1)NC(=O)O[C@H]1CO[C@H]2OCC[C@H]21)S(=O)(=O)c1ccc(N)cc1 [DRV, darunavir] | 1.58 ± 0.11 | 1.00 | 1.4 ± 0.2 | 0.009 | 32.9 | 5.53 ± 0.09 | 11.5 ± 1.09 | 7.8 ± 0.71 | 26.3 | 0.01 | 44.7 | 0.005 | 8.12 | Ki ([1]; wild type subtype B HIV-1 PR): ~0.005 nM; Stern–Volmer quenching constant (Ksv) ([10]; WT HIV-1 PR): 0.030 nM⁻¹ |
| Cc1cccc(C)c1OCC(=O)N[C@@H](Cc1ccccc1)[C@@H](O)C[C@H](Cc1ccccc1)NC(=O)[C@H](C(C)C)N1CCCNC1=O [LPV, lopinavir] | 2.13 ± 0.23 | 1.00 | 2.1 ± 0.2 | 0.004 | 79.5 | 46.5 ± 0.14 | 76.26 ± 0.09 | 52.6 ± 0.65 | 54.7 | 0.004 | 113 | 0.003 | 17.2 | Ki ([1]; wild-type subtype B HIV-1 PR): ~0.02 nM; Relative Resistance [11]: 21.83; Relative Resistance [12]: 24.71; Relative Resistance [13]: 35.80; Stern–Volmer quenching constant (Ksv) [10]: 0.02 nM⁻¹; Ki [14]: 0.44 to 260 nM |

Source: PMC8064090 (Biomolecules, 2021)
